Data reported in US5583123A, “Certain tetrazole derivatives” (priority 1994, dated 1996).
pIC50: −log10 of the molar value.

Target: T1, Endothelin converting enzyme (ECE) (Sus scrofa, UniProt A0A8W4FBH0)
T1 construct: partially purified from porcine primary aortic endothelial cells; endogenous in cells; host or cells: porcine primary aortic endothelial cells (partially purified by DE52 anion exchange)
T1 sequence (A0A8W4FBH0 1-751): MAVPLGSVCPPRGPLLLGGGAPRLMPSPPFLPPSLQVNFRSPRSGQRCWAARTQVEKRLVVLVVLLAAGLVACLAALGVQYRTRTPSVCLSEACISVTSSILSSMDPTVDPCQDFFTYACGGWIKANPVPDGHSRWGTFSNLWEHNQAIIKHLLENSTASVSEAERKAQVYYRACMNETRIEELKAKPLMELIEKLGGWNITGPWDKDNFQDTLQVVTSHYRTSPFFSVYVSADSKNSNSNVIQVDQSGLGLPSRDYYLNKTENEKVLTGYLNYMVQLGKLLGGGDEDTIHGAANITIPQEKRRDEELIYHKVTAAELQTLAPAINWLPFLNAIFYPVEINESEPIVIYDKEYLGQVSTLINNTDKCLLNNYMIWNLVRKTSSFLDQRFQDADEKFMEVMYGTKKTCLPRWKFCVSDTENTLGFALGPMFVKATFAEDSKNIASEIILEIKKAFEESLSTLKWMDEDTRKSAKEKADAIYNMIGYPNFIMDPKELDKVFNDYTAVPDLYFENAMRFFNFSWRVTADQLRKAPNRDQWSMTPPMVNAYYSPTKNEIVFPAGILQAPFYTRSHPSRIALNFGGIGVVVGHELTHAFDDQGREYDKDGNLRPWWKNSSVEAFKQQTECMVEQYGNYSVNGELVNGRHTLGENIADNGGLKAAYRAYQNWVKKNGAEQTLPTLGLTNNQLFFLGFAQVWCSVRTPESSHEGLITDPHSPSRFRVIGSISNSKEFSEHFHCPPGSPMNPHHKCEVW
Test: in vitro assay for endothelin converting enzyme inhibition (radioimmunoassay of ET-1 formed from big ET-1)
Type: biochemical, porcine
Excerpt: The ECE inhibition can be determined as described in Biochem. Mol. Biol. Int. […] In vitro testing is most appropriate for the free phosphonic acids of the invention.

Structure (SMILES): O=P(O)(O)C(CCc1cccc2ccccc12)N[C@@H](Cc1ccc(-c2ccccc2)cc1)c1nnn[nH]1 (single isomer, unassigned) [1 (a)]
- pIC50 (ECE partially purified from porcine primary aortic endothelial cells, pH 7.4 buffer): ~6.43
- relative activity as ECE inhibitor (diastereomer A versus diastereomer B) (comparison of the two diastereomers of Example 1): more active
